Test results taken from patent US20240150365A1 (Hotspot Therapeutics, Inc., priority 2022, published 2024).
pIC50: −log10 of the molar value. Where two headings read alike, the source gives them in different places.

Legend:
[1] = biological target: T1, MALT1 (Homo sapiens, UniProt Q9UDY8); test: MALT-1 Fluorogenic Peptide Cleavage Assay (MALT1 inhibition assay); format: biochemical; conditions: Avi-tagged FL MALT-1, Ac-LRSR-AMC peptide substrate, 30 min pre-incubation, 90 min reaction
T1 construct: Avi-tagged FL MALT-1 (Pharmaron, stored at −70° C.); Avi tag
T1 sequence (Q9UDY8 1-824): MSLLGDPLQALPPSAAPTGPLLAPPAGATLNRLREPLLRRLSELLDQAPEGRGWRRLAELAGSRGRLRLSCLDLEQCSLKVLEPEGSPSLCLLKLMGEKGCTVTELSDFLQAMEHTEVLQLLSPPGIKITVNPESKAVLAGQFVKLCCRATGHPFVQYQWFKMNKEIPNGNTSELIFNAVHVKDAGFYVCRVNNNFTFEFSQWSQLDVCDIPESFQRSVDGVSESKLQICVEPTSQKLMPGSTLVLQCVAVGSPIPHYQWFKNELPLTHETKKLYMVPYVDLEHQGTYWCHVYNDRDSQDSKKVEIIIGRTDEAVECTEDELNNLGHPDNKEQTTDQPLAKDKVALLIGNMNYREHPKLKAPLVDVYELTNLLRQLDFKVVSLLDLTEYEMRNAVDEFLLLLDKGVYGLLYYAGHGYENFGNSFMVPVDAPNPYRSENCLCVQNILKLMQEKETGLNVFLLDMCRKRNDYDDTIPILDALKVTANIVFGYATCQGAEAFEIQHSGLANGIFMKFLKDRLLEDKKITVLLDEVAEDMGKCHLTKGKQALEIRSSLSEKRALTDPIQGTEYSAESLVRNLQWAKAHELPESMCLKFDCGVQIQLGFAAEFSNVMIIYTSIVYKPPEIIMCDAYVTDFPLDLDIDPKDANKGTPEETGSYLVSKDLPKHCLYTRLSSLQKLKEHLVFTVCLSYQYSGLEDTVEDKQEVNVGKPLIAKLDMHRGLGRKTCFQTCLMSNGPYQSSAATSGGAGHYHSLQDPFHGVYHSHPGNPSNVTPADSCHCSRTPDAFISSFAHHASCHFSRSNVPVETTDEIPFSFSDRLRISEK
Protocol: Inhibition of MALT1 activity by the presence of small molecules was evaluated using MALT-1 Fluorogenic Peptide Cleavage Assay. The assay utilizes a quenched AMC-labelled peptide that contains the MALT-1 recognition sequence and cleavage site (LRSR). MALT-1 mediated cleavage of the peptide relieves the quenching and leads to an increase in fluorescence at excitation (342 nm) and emission (441 nm). The following reagents were obtained commercially and used to prepare standard reagent formulations as further described below: […] The standard reagent formulations used in this assay were prepared and stored as follows. A 1.1 M solution of sodium citrate (161.3 g, 500 mL) was prepared and stored at room temperature. A 10% (w/v) CHAPS solution (2.0 g, 20 mL) was prepared and stored at 4° C. A 500 mM HEPES solution having pH of 6.89 was prepared from 200 mL of a 1 M HEPES solution having a pH of 7.5 using concentrated hydrochloric acid and brought to a final volume of 400 mL with […]® H2O. The substrate, 10 mM Ac-LRSR-AMC Peptide, was prepared (10 mg, 1.370 mL DMSO) and stored at -20° C. Compounds were plated to provide a 2% DMSO final concentration using a ProxiPlate-384 Plus F Black 384-shallow well microplate. The assay-ready plates were equilibrated to room temperature. […] DMSO was added only when compound plates had not been DMSO-backfilled to 2%. MALT-1 was thawed and kept on ice. Peptide substrate was thawed on the bench under ambient conditions. A MALT-1 enzyme working stock was prepared from Avi-tagged FL MALT-1 (40 nM in a prepared reagent volume of 16.5 μL) and the reaction buffer (13.0 mL). MALT1 working stock (5 μL) was added to each well of the microplate. MALT-1 was pre-incubated with compounds for 30 minutes at room temperature. […] The plates were covered and incubated on the bench at room temperature for 90 minutes. Fluorescence intensity was determined using a CLARIOstar microplate reader (BMG LABTECH) using the optimised AMC mode. Before taking readings, a 70% gain was applied on the neutral control well. Compound data were normalised to % Inhibition and used to plot sigmoidal concentration response curves to yield various parameters including IC50. […] Compounds in which an IC50 was not measured are designated as “N/A”.

[2] = tested on: NF-kB; test: NF-kB reporter assay in Jurkat cells stimulated with aCD3/aCD28/PMA; format: cell-based; conditions: Homo sapiens, Jurkat, read-out: NF-kB Reporter Assay IC50
Protocol: Jurkat cells were maintained in complete RPMI 1640 media supplemented with 10% FBS. Prior to the assay, 120 nL of the serial diluted compound was added in each well of 384-well flat bottom white plate (Corning #3570) by using liquid handler Echo550. Jurkat cells were harvested by centrifugation at 120 g for 10 min and resuspended in fresh RPMI 1640 media without serum. 30 μL of cells (25,000 cells) were seeded in each well of 384-well plate containing compound. After 1 hr incubation at 37° C. in a 5% CO2 incubator, 10 μL of diluted aCD3/aCD28/PMA (final concentration at 5 μg/mL, 5 μg/mL and 0.03 μg/mL, respectively) in RPMI 1640 without serum were added to each well. After incubation at 37° C. in 5% CO2 for 4 hr, 30 μL of One-Glo reagent (Promega #E6120) was added into each well. The plate was left at room temperature for 5 min and the signal was measured on EnVision (PerkinElmer).
Compounds in which an IC50 was not measured are designated as “N/A”.

[3] = Jurkat cells, 1 hr compound incubation, aCD3/aCD28/PMA stimulation 4 hr, One-Glo readout

Row | SMILES | pIC50 [1] | pIC50 [2, 3] | pIC50 [2]
1 | Cc1ncc2cccc(NS(=O)(=O)c3ccc(-n4cc(C(F)(F)F)cn4)nc3)n12 [Example I-199, N-(3-methylimidazo[1,5-a]pyridin-5-yl)-6-(4-(trifluoromethyl)-1H-pyrazol-1-yl)pyridine-3-sulfonamide] | < 5.60 | 5.60 to 6.00 | 
2 | Cn1ncc2cccc(NS(=O)(=O)c3ccc(-c4cnc(Cl)s4)nc3)c21 [Example I-250, 6-(2-chlorothiazol-5-yl)-N-(1-methyl-1H-indazol-7-yl)pyridine-3-sulfonamide] | 5.60 to 6.00 |  | > 6.40
3 | Cn1ncc2cccc(NS(=O)(=O)c3ccc(-c4cccnc4)nc3)c21 [Example I-109, N-(1-Methyl-1H-Indazol-7-yl)-[2,3′-Bipyridine]-5-Sulfonamide] | < 5.60 | > 6.40 | 
4 | Cc1nn(C)c(C)c1-c1ccc(S(=O)(=O)Nc2cccc3cnn(C)c23)cn1 [Example I-89, N-(1-Methyl-1H-Indazol-7-yl)-6-(1,3,5-Trimethyl-1H-Pyrazol-4-yl)Pyridine-3-Sulfonamide] | < 5.60 | > 6.40 | 
5 | Cn1ncc2cccc(NS(=O)(=O)c3ccc(-c4cccc(=O)[nH]4)nc3)c21 [Example I-118, N-(1-Methyl-1H-Indazol-7-yl)-6′-Oxo-1′,6′-Dihydro-[2,2′-Bipyridine]-5-Sulfonamide] | < 5.60 | < 5.60 | 
6 | Cn1ccc(-c2ccc(S(=O)(=O)Nc3cccc4cnn(C)c34)cn2)cc1=O [Example I-117, 1′-Methyl-N-(1-Methyl-1H-Indazol-7-yl)-2′-Oxo-1′,2′-Dihydro-[2,4′-Bipyridine]-5-Sulfonamide] | < 5.60 | < 5.60 | 
7 | COc1ccc2cnn(C)c2c1NS(=O)(=O)c1ccc(-n2ccc(C3CC3)n2)nc1 [Example I-153, 6-(3-Cyclopropyl-1H-Pyrazol-1-yl)-N-(6-Methoxy-1-Methyl-1H-Indazol-7-yl)Pyridine-3-Sulfonamide] | > 6.40 | > 6.40 | 
8 | Cn1ncc2cccc(NS(=O)(=O)c3ccc(-n4ncc5c4CCOC5)nc3)c21 [Example I-245, N-(1-methylindazol-7-yl)-6-{4H,6H,7H-pyrano[4,3-c]pyrazol-1-yl}pyridine-3-sulfonamide] | < 5.60 | > 6.40 | 
9 | COc1ccc2cnn(C)c2c1NS(=O)(=O)c1ccc(-c2nc(C)no2)nc1 [Example I-169, N-(6-Methoxy-1-Methyl-1H-Indazol-7-yl)-6-(3-Methyl-1,2,4-Oxadiazol-5-yl)Pyridine-3-Sulfonamide] | 5.60 to 6.00 | < 5.60 | 
10 | COc1ccc2cnn(C)c2c1N(C)S(=O)(=O)c1ccc(-n2cc(C(F)(F)F)cn2)nc1 [Example I-162, N-(6-Methoxy-1-Methyl-1H-Indazol-7-yl)-N-Methyl-6-(4-(Trifluoromethyl)-1H-Pyrazol-1-yl)Pyridine-3-Sulfonamide] | > 6.40 | > 6.40 | 
11 | COc1ccc2cnn(C)c2c1NS(=O)(=O)c1ccc(-n2ccc(C(F)F)n2)nc1 [Example I-127, 6-(3-(Difluoromethyl)-1H-Pyrazol-1-yl)-N-(6-Methoxy-1-Methyl-1H-Indazol-7-yl)Pyridine-3-Sulfonamide] | > 6.40 | > 6.40 | 
12 | Cc1cnn(C)c1-c1ccc(S(=O)(=O)Nc2cccc3cnn(C)c23)cn1 [Example I-124, 6-(1,4-Dimethyl-1H-Pyrazol-5-yl)-N-(1-Methyl-1H-Indazol-7-yl)Pyridine-3-Sulfonamide] | < 5.60 | < 5.60 | 
13 | CCc1ccc2cnn(C)c2c1NS(=O)(=O)c1ccc(-n2cc(C(F)(F)F)c(C(=O)N3CC(O)C3)n2)nc1 [Example I-5] | > 6.40 |  | 
14 | COc1ccc2cnn(C)c2c1NS(=O)(=O)c1ccc(-n2ncc(C(F)(F)F)n2)nc1 [Example I-28, N-(6-Methoxy-1-Methyl-1H-Indazol-7-yl)-6-(4-(Trifluoromethyl)-2H-1,2,3-Triazol-2-yl)Pyridine-3-Sulfonamide] | 6.00 to 6.40 | > 6.40 | 
15 | Cn1ncc2cccc(NS(=O)(=O)c3ccc(-n4cc(F)cn4)nc3)c21 [Example I-38, 6-(4-Fluoro-1H-Pyrazol-1-yl)-N-(1-Methyl-1H-Indazol-7-yl) Pyridine-3-Sulfonamide] | 5.60 to 6.00 | > 6.40 | 
16 | Cn1ncc2cccc(NS(=O)(=O)c3ccc(-n4ccc(C5CC5)n4)nc3)c21 [Example I-207, 6-(3-Cyclopropyl-1H-Pyrazol-1-yl)-N-(1-Methyl-1H-Indazol-7-yl)Pyridine-3-Sulfonamide] | 5.60 to 6.00 | > 6.40 | 
17 | COc1ccc2cnn(C)c2c1NS(=O)(=O)c1ccc(-c2cnn3c2CCC3)nc1 [Example I-287] | 5.60 to 6.00 | > 6.40 | 
18 | CCc1ccc2cnn(C)c2c1NS(=O)(=O)c1ccc(-c2ccncc2)nc1 [Example I-47, N-(6-Ethyl-1-Methyl-1H-Indazol-7-yl)-[2,4′-Bipyridine]-5-Sulfonamide] | 5.60 to 6.00 |  | 
19 | Cn1ncc2cccc(NS(=O)(=O)c3ccc(-n4cc(C(F)(F)F)cn4)nc3)c21 [Example I-23, N-(1-Methyl-1H-Indazol-7-yl)-6-(4-(Trifluoromethyl)-1H-Pyrazol-1-yl)Pyridine-3-Sulfonamide] | 6.00 to 6.40 | > 6.40 | 
20 | Cc1ccn(-c2ccc(S(=O)(=O)Nc3c(C)ccc4cnn(C)c34)cn2)n1 [Example I-34, N-(1,6-dimethyl-1H-indazol-7-yl)-6-(3-methyl-1H-pyrazol-1-yl)pyridine-3-sulfonamide] | > 6.40 | 6.00 to 6.40 | 
21 | COc1ncc2cnn(C)c2c1NS(=O)(=O)c1ccc(-c2csc(C)n2)nc1 [Example I-186, N-(6-methoxy-1-methyl-1H-pyrazolo[4,3-c]pyridin-7-yl)-6-(2-methylthiazol-4-yl)pyridine-3-sulfonamide] | > 6.40 | > 6.40 | 
22 | CCc1ccc2cnn(C)c2c1NS(=O)(=O)c1ccc(-c2ccc(C(=O)OC)c(Cl)c2)nc1 [Example I-45, Methyl 2-Chloro-4-(5-(N-(6-Ethyl-1-Methyl-1H-Indazol-7-yl)Sulfamoyl)Pyridin-2-yl)Benzoate] | > 6.40 |  | 
23 | CCc1ccc2cnn(C)c2c1NS(=O)(=O)c1ccc(-c2ccnc(C(F)(F)F)c2)nc1 [Example I-46, N-(6-Ethyl-1-Methyl-1H-Indazol-7-yl)-2′-(Trifluoromethyl)-[2,4′-Bipyridine]-5-Sulfonamide] | > 6.40 |  | 
24 | CCc1ccc2cnn(C)c2c1NS(=O)(=O)c1ccc(-n2cc(C(F)(F)F)c(C(=O)N(C)C)n2)nc1 [Example I-4] | 6.00 to 6.40 |  | 
